“Also recorded” adds a separate entry of the source.

Data set [1] has as its target T1, Candida intermedia GXS1 transporter protein, wild type, SEQ ID NO: 1 (Sungouiella intermedia, UniProt Q2MEV7).
T1 construct: 14C-xylose uptake
T1 sequence (Q2MEV7 1-522): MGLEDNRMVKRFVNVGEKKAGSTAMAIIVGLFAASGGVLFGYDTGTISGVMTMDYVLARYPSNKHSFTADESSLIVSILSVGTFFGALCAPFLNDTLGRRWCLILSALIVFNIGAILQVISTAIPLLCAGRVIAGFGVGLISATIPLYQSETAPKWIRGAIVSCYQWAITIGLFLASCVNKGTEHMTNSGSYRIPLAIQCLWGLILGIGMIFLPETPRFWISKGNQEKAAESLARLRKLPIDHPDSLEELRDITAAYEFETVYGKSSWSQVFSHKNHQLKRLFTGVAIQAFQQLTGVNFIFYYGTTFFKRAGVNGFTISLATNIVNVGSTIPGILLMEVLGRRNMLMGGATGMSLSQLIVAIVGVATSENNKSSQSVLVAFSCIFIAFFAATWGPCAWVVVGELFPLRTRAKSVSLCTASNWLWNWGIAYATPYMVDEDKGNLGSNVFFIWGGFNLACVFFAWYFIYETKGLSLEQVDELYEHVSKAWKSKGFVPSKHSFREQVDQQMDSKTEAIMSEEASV
In words: Radiolabeled xylose uptake kinetics, wild type GXS1. The data set is classed as cell-based. Particulars: gene in p414-TEF, S. cerevisiae EX.12. Here is the method:
(§1) Radiolabelled xylose uptake experiments were performed to quantify the improvement of transport kinetics in the Phe^38 Ile^39 Met^40 triple mutant. […] An increased KM was observed as well (FIG. 5E), a phenotype observed in previous efforts to engineer this transporter (38). Nevertheless, the binding affinity is still quite high for practical culturing at a value corresponding to around 0.1 g/L (Table 2).
(§2) Strains, media, and plasmids—Molecular cloning and standard culturing techniques with E. coli DH10B were performed according to Sambrook (46). S. cerevisiae EX.12 was used for all yeast experiments and was constructed as previously described (38). All transporters were cloned into p414-TEF, a standard yeast shuttle vector created by Mumberg (47). Yeast synthetic complete media was used for culture and experimental growth media. CSM-Trp was used when S. cerevisiae EX.12 was carrying a transporter. Carbon sources were provided at 20 g/L.
(§3) Radiolabeled xylose uptake—Uptake of ^14C labeled xylose was used to determine the Michaelis-Menten parameters for C. intermedia GXS1 and the Phe^38 Ile^39 Met^40 triple mutant. The method was performed as previously described (38).

For data set [2], the target named is T2, Candida intermedia GXS1 variant Phe38 Ile39 Met40 (F38I39M40; V38F/L39I/F40M; motif G-G-F-I-M-G, SEQ ID NO: 4; parent GXS1 SEQ ID NO: 1) (Sungouiella intermedia, UniProt Q2MEV7, F40M/L39I/V38F).
T2 construct: 14C-xylose uptake
T2 sequence (Q2MEV7 1-522 V38F/L39I/F40M): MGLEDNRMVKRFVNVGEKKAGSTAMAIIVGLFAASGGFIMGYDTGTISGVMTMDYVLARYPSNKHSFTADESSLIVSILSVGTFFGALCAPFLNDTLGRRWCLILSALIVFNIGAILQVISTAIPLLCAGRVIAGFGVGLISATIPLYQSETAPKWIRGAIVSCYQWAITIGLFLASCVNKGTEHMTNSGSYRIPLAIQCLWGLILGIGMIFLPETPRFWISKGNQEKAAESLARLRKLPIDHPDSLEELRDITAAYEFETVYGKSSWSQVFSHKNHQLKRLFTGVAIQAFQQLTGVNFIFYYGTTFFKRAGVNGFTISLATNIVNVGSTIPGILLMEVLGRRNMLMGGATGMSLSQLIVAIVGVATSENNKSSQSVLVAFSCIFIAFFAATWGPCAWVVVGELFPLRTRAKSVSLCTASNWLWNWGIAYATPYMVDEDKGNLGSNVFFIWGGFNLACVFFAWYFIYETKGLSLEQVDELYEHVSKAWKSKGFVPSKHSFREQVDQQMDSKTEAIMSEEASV
Nature of the data set: Radiolabeled xylose uptake kinetics, gxs1 Phe38 Ile39 Met40 triple mutant. The format is cell-based. The method, then: as §1, §2, §3

The subject of data set [3] is Candida intermedia GXS1 variant Phe38 Ile39 Met40 (F38I39M40; V38F/L39I/F40M; motif G-G-F-I-M-G, SEQ ID NO: 4; parent GXS1 SEQ ID NO: 1). The description is as above. The note with it: triple mutant versus wild type GXS1. The format is cell-based. The method, then:
as §1, §2, §3

Data set [4] concerns the target Candida intermedia GXS1 variant Phe38 Ile39 Met40 (F38I39M40; motif G-G-F-I-M-G, SEQ ID NO: 4; parent GXS1 SEQ ID NO: 1) (Sungouiella intermedia, UniProt Q2MEV7, F40M/L39I/V38F). The data set is classed as cell-based. The note with it: glucose at levels of 5 g/L; S. cerevisiae EX.12.
Substrate in data set [5]: OC1OC[C@@H](O)[C@H](O)[C@H]1O
In words: Radiolabeled xylose uptake kinetics, gxs1 Phe38 Ile39 Met40 triple mutant. The format is cell-based. The method, then:
as §1, §2, §3

Substrate in data set [6]: OC1OC[C@@H](O)[C@H](O)[C@H]1O
Nature of the data set: Radiolabeled xylose uptake kinetics, wild type GXS1. The format is cell-based, Candida intermedia. The note with it: other: radiolabeled xylose uptake; gene in p414-TEF; S. cerevisiae EX.12. Here is the method: as §1, §2, §3

In the case of `OC1OC[C@@H](O)[C@H](O)[C@H]1O` (stereo partly shown) [xylose], the “VMAX (xylose)” value in data set [1] is on record as 7.23 ± 0.6 nmol min^−1 gDCW^−1; in data set [2] (radiolabeled xylose uptake, gene in p414-TEF, S. cerevisiae EX.12) it was 15.01 ± 2.38 nmol min^−1 gDCW^−1. Moreover, the Km in data set [2] (read-out: binding affinity / KM (xylose), as g/L, conversion of KM) was roughly 666 µM. Also, in data set [3], the “KM change compared to wild type (xylose)” value was “increased KM; also recorded: significantly increased”. Besides, the “Vmax change compared to wild type (xylose)” value in data set [3] is “doubling in Vmax”.

Consider `OC[C@H]1OC(O)[C@H](O)[C@@H](O)[C@@H]1O` (stereo partly shown) [glucose], for which the “radiolabelled xylose uptake in the presence of glucose (inhibition by glucose)” value in data set [2] (glucose concentration not stated) is “no radiolabelled xylose uptake was detected”. The “inhibition of xylose growth by glucose” value in data set [4] is listed as “still appear to inhibit xylose growth”.

B1: Candida intermedia GXS1 variant Phe38 Ile39 Met40 (F38I39M40; V38F/L39I/F40M; motif G-G-F-I-M-G, SEQ ID NO: 4; parent GXS1 SEQ ID NO: 1) (Sungouiella … (protein)
chain: MGLEDNRMVKRFVNVGEKKAGSTAMAIIVGLFAASGGFIMGYDTGTISGVMTMDYVLARYPSNKHSFTADESSLIVSILSVGTFFGALCAPFLNDTLGRRWCLILSALIVFNIGAILQVISTAIPLLCAGRVIAGFGVGLISATIPLYQSETAPKWIRGAIVSCYQWAITIGLFLASCVNKGTEHMTNSGSYRIPLAIQCLWGLILGIGMIFLPETPRFWISKGNQEKAAESLARLRKLPIDHPDSLEELRDITAAYEFETVYGKSSWSQVFSHKNHQLKRLFTGVAIQAFQQLTGVNFIFYYGTTFFKRAGVNGFTISLATNIVNVGSTIPGILLMEVLGRRNMLMGGATGMSLSQLIVAIVGVATSENNKSSQSVLVAFSCIFIAFFAATWGPCAWVVVGELFPLRTRAKSVSLCTASNWLWNWGIAYATPYMVDEDKGNLGSNVFFIWGGFNLACVFFAWYFIYETKGLSLEQVDELYEHVSKAWKSKGFVPSKHSFREQVDQQMDSKTEAIMSEEASV
notes: 14C-xylose uptake
Turning to B1, the Km in data set [5] (other: conversion of KM) turned out to be 0.1 g/L; in data set [5] (other: radiolabeled xylose uptake, gene in p414-TEF, S. cerevisiae EX.12) it was 721 ± 116 µM.

B2: Candida intermedia GXS1 transporter protein, wild type, SEQ ID NO: 1 (Sungouiella intermedia) (protein)
chain: MGLEDNRMVKRFVNVGEKKAGSTAMAIIVGLFAASGGVLFGYDTGTISGVMTMDYVLARYPSNKHSFTADESSLIVSILSVGTFFGALCAPFLNDTLGRRWCLILSALIVFNIGAILQVISTAIPLLCAGRVIAGFGVGLISATIPLYQSETAPKWIRGAIVSCYQWAITIGLFLASCVNKGTEHMTNSGSYRIPLAIQCLWGLILGIGMIFLPETPRFWISKGNQEKAAESLARLRKLPIDHPDSLEELRDITAAYEFETVYGKSSWSQVFSHKNHQLKRLFTGVAIQAFQQLTGVNFIFYYGTTFFKRAGVNGFTISLATNIVNVGSTIPGILLMEVLGRRNMLMGGATGMSLSQLIVAIVGVATSENNKSSQSVLVAFSCIFIAFFAATWGPCAWVVVGELFPLRTRAKSVSLCTASNWLWNWGIAYATPYMVDEDKGNLGSNVFFIWGGFNLACVFFAWYFIYETKGLSLEQVDELYEHVSKAWKSKGFVPSKHSFREQVDQQMDSKTEAIMSEEASV
notes: 14C-xylose uptake
With B2, the Km in data set [6] worked out at 25.6 ± 65.9 µM.

For the origin of these results see patent US9926347B2, “Methods for engineering sugar transporter preferences” (Board of Regents, The University of Texas System, priority 2013, dated 2018).
